In patent US10130630B2, “BTK inhibitors” (MERCK SHARP & DOHME CORP., priority 2014, dated 2018):
Read-outs that look alike come from different tables or passages of the source.

Columns and labels:
[1] = molecular target: T1, BTK enzyme (full-length BTK, hBTK) (Homo sapiens, UniProt Q06187); experiment: Btk enzyme activity assay (LANCE TR-FRET); assay type: biochemical; conditions: 50 pM hBTK, 25 μM ATP, 60 minute compound and enzyme incubation, read-out: BTK binding IC50
T1 construct: recombinant protein from baculovirus-transfected Sf9 cells: full-length BTK, 6HIS-tag cleaved; 6HIS (cleaved yes); made in house; host or cells: baculovirus-transfected Sf9 cells
T1 sequence (Q06187 whole entry): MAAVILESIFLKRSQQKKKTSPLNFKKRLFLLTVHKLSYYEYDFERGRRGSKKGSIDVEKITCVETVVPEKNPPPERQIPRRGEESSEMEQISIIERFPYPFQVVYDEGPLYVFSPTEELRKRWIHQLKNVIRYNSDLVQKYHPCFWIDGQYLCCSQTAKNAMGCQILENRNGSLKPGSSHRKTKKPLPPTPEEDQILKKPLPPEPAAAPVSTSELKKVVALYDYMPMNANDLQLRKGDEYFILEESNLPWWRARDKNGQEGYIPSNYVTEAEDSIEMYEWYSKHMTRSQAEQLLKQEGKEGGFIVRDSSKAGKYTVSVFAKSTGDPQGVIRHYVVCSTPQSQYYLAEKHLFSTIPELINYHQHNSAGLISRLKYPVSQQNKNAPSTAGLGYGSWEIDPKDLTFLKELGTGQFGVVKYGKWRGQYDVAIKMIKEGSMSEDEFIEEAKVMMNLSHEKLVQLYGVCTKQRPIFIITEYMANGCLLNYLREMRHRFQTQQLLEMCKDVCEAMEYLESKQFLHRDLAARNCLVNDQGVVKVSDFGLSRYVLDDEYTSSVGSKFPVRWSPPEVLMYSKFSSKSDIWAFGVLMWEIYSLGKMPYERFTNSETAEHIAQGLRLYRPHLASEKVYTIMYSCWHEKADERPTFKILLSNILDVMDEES
Procedure: BTK enzymatic activity was determined with the LANCE (Lanthanide Chelate Excite) TR-FRET (Time-resolved fluorescence resonance energy transfer) assay. […] To each well of a black non-binding surface Corning 384-well microplate (Corning Catalog #3820), 5 nL of compound (2000 fold dilution in final assay volume of 10 μL) was dispensed, followed by the addition of 7.5 μL of 1× kinase buffer (50 mM Hepes 7.5, 10 mM MgCl2, 0.01% Brij-35, 1 mM EGTA, 0.05% BSA & 1 mM DTT) containing 5.09 pg/μL (66.67 pM) of BTK enzyme (recombinant protein from baculovirus-transfected Sf9 cells: full-length BTK, 6HIS-tag cleaved). Following a 60 minute compound and enzyme incubation, each reaction was initiated by the addition of 2.5 μL 1× kinase buffer containing 8 μM biotinylated “A5” peptide (Biotin-[…]-NH2) (SEQ.ID.NO.: 1), and 100 μM ATP. The final reaction in each well of 10 μL consists of 50 pM hBTK, 2 μM biotin-A5-peptide, and 25 μM ATP. Phosphorylation reactions were allowed to proceed for 120 minutes. Reactions were immediately quenched by the addition of 20 uL of 1× quench buffer (15 mM EDTA, 25 mM Hepes 7.3, and 0.1% Triton X-100) containing detection reagents (0.626 nM of LANCE-Eu-W1024-anti-phosphoTyrosine antibody, PerkinElmer and 86.8 nM of Streptavidin-conjugated Dylight 650, Dyomics/ThermoFisher Scientific). After 60 minutes incubation with detection reagents, reaction plates were read on a PerkinElmer EnVision plate reader using standard TR-FRET protocol. Briefly, excitation of donor molecules (Eu-chelate:anti-phospho-antibody) with a laser light source at 337 nm produces energy that can be transferred to Dylight-650 acceptor molecules if this donor:acceptor pair is within close proximity. Fluorescence intensity at both 665 nm (acceptor) and 615 nm (donor) are measured and a TR-FRET ratio calculated for each well (acceptor intensity/donor intensity). IC50 values were determined by 4 parameter robust fit of TR-FRET ratio values vs. (Log10) compound concentrations.
The following Table 2 provides specific IC50 values for all the examples. The IC50 values set forth below were determined according to Assay method described above.

[2] = system: adenosine uptake into HeLa cells; experiment: [3H]Adenosine uptake assay in HeLa cells; assay type: cell-based; conditions: 60 minutes uptake, read-out: ADU inhibition IC50 (adenosine uptake inhibition potency)
Procedure: Compounds were also screened in an adenosine uptake functional cellular assay using the protocol described below.
Adenosine uptake activity was determined by monitoring the accumulation of tritiated adenosine into HeLa cells (ATCC catalog # CCL-2) using a PMT-based radiometric detection instrument. In this assay, the potency (IC50) of each compound was determined from a ten point (1:3 serial dilution; final compound concentration range in assay from 10 μM to 0.032 nM) titration curve using the following outlined procedure. To each well of a 96-well CytoStar-T scintillating microplate (Perkin Elmer Catalog # RPNQ0163), 25 000 HeLa cells in 100 μL of growth medium comprising: Minimum Essential Media (Life Technologies Catalog # 11095-080)+10% (v/v) foetal bovine serum (FBS; Sigma Aldrich Catalog # F2442) was added. These cells were incubated overnight at 37° C. in a humidified atmosphere with 5% (v/v) CO2. After this time the growth medium was removed and replaced with 40 μL assay medium comprising: Hanks balanced salts solution (HBSS; Thermo Fisher Catalog # SH30268.01)+5% (v/v) FBS. Compound stock solutions in DMSO were diluted in assay medium to 2.5× final compound concentration maintaining a constant DMSO concentration of 0.25% (v/v). 40 μL of compound in assay medium was dispensed into individual wells of the Cytostar-T plates and the plates were incubated for 30 minutes under ambient laboratory conditions. Following this incubation, 20 μL of 500 nM [^3H]adenosine (American Radiolabeled Chemicals Inc. Catalog # ART0287) in assay medium was added and incubated for a further 60 minutes under ambient laboratory conditions. The amount of radiolabel accumulation was then determined using a Perkin Elmer Topcount NXT microplate reader. In brief, HeLa cells adhere to the bottom of the Cytostar-T plate, uptake of [^3H]adenosine into these cells brings the radiolabel into sufficient proximity to excite the scintillant in the base of the plates. These events are captured by single PMT, time-resolved coincidence counting. IC50 values were determined by 4 parameter robust fit of counts per second values vs. (Log10) compound concentrations.

Which IC50 [1] does the source give for `COc1cc(C(=O)Nc2cc(C(F)(F)F)ccn2)ccc1-c1nc([C@@H]2CC[C@H]3CNC4(CC4)C(=O)N3C2)n2ccnc(N)c12` [Compound 41, 4-{8-amino-3-[(7′R,9a′S)-4′-oxohexahydro-2′H-spiro[cyclopropane-1,3′-pyrido[1,2-a]pyrazin]-7′-yl]imidazo[1,5-a]pyrazin-1-yl}-3-methoxy-N-[4-(trifluoromethyl)pyridin-2-yl]benzamide] here?
Its IC50 is 0.252 nM.

And the IC50 ([2]; Homo sapiens, HeLa)?
Its IC50 is 1340 nM.

How did the IC50 [1] turn out when `CCOc1cc(C(=O)Nc2cc(C(F)(F)F)ccn2)ccc1-c1nc([C@@H]2CC[C@H]3[C@@H](OC)C4(CC4)C(=O)N3C2)n2ccnc(N)c12` [Compound 14, 4-(8-amino-3-((1′S,6′R,8a′S)-1′-methoxy-3′-oxohexahydro-1′H-spiro[cyclopropane-1,2′-indolizin]-6′-yl)imidazo[1,5-a]pyrazin-1-yl)-3-ethoxy-N-(4-(trifluoromethyl)pyridin-2-yl)benzamide] was run?
The IC50 was 1.28 nM.

What about the IC50 ([2]; Homo sapiens, HeLa) of the same molecule?
The IC50 was 828 nM.

How did the IC50 [1] turn out when `CCOc1cc(C(=O)Nc2cc(C(F)(F)F)ccn2)ccc1-c1nc([C@@H]2CC[C@H]3C(=O)C4(CC4)C(=O)N3C2)n2ccnc(N)c12` [Compound 5, 4-{8-amino-3-[(6′R,8a′S)-1′,3′-dioxohexahydrospiro[cyclopropane-1,2′-indolizin]-6′-yl]imidazo[1,5-a]pyrazin-1-yl}-3-ethoxy-N-[4-(trifluoromethyl)pyridin-2-yl]benzamide] was run?
The IC50 was 1.47 nM.

What about the IC50 ([2]; Homo sapiens, HeLa) of the same molecule?
The IC50 was 912 nM.

For `CCOc1cc(C(=O)Nc2cc(C(F)(F)F)ccn2)ccc1-c1nc([C@@H]2CC[C@@H]3N(C2)C(=O)C2(CC2)C3(F)F)n2ccnc(N)c12` [Compound 3, 4-(8-amino-3-((6′R,8a′S)-1′,1′-difluoro-3′-oxohexahydro-1′H-spiro[cyclopropane-1,2′-indolizin]-6′-yl)imidazo[1,5-a]pyrazin-1-yl)-3-ethoxy-N-(4-(trifluoromethyl)pyridin-2-yl)benzamide], which IC50 [1] is on record?
Its IC50 is 1 nM.

And the IC50 [2]?
The IC50 was 1330 nM.

For `CCOc1cc(C(=O)Nc2cc(C(F)(F)F)ccn2)ccc1-c1nc([C@@H]2CC[C@H]3CN(CC)C4(CC4)C(=O)N3C2)n2ccnc(N)c12` [Compound 44, 4-{8-amino-3-[(7′R,9a′S)-2′-ethyl-4′-oxohexahydro-2′H-spiro[cyclopropane-1,3′-pyrido[1,2-a]pyrazin]-7′-yl]imidazo[1,5-a]pyrazin-1-yl}-3-ethoxy-N-[4-(trifluoromethyl)pyridin-2-yl]benzamide], which IC50 [1] is on record?
The IC50 was 0.249 nM.

What about the IC50 ([2]; Homo sapiens, HeLa) of the same molecule?
Its IC50 is 785 nM.

For `Nc1nccn2c([C@@H]3CC[C@H]4C(=O)C5(CC5)C(=O)N4C3)nc(-c3ccc(C(=O)Nc4cc(C(F)(F)F)ccn4)cc3F)c12` [Compound 7, 4-{8-amino-3-[(6′R,8a′S)-1′,3′-dioxohexahydrospiro[cyclopropane-1,2′-indolizin]-6′-yl]imidazo[1,5-a]pyrazin-1-yl}-3-fluoro-N-[4-(trifluoromethyl)pyridin-2-yl]benzamide], which IC50 [1] is on record?
Its IC50 is 0.425 nM.

And the IC50 ([2]; Homo sapiens, HeLa)?
The IC50 was 173 nM.

`COc1cc(C(=O)Nc2cc(C(F)(F)F)ccn2)ccc1-c1nc([C@H]2CC[C@@H]3CC4(CC4)C(=O)N3C2)n2ccnc(N)c12` [Compound 47, 4-{8-amino-3-[(6′S,8a′R)-3′-oxohexahydrospiro[cyclopropane-1,2′-indolizin]-6′-yl]imidazo[1,5-a]pyrazin-1-yl}-3-methoxy-N-[4-(trifluoromethyl)pyridin-2-yl]benzamide] was tested. Which IC50 [1] did it give?
The IC50 was 0.528 nM.

What about the IC50 ([2]; Homo sapiens, HeLa) of the same molecule?
The IC50 was 524 nM.

`Nc1nccn2c([C@@H]3CC[C@H]4[C@@H](O)C5(CC5)C(=O)N4C3)nc(-c3ccc(C(=O)Nc4cc(C(F)(F)F)ccn4)cc3)c12` [Compound 10, 4-{8-amino-3-[(1′S,6′R,8a′S)-1′-hydroxy-3′-oxohexahydrospiro[cyclopropane-1,2′-indolizin]-6′-yl]imidazo[1,5-a]pyrazin-1-yl}-N-[4-(trifluoromethyl)pyridin-2-yl]benzamide] was tested. Which IC50 [1] did it give?
Its IC50 is 0.952 nM.

What about the IC50 ([2]; Homo sapiens, HeLa) of the same molecule?
Its IC50 is 861 nM.

With `CCOc1cc(C(=O)Nc2cc(C(F)(F)F)ccn2)ccc1-c1nc(C2CCC3N(C2)C(=O)CNC32CC2)n2ccnc(N)c12` (stereo not shown) [Compound 43, 4-[8-amino-3-(4′-oxohexahydro-2′H,6′H-spiro[cyclopropane-1,1′-pyrido[1,2-a]pyrazin]-7′-yl)imidazo[1,5-a]pyrazin-1-yl]-3-ethoxy-N-[4-(trifluoromethyl)pyridin-2-yl]benzamide] as the molecule, how does the IC50 [1] read?
Its IC50 is 5.61 nM.

What about the IC50 [2] of the same molecule?
The IC50 was 1190 nM.

Which IC50 [1] does the source give for `CCOc1cc(C(=O)Nc2cc(C(F)(F)F)ccn2)ccc1-c1nc([C@H]2CC[C@H]3N(C2)C(=O)CC32CC2)n2ccnc(N)c12` [Compound 19, 4-{8-amino-3-[(6′S,8a′R)-3′-oxohexahydro-5′H-spiro[cyclopropane-1,1′-indolizin]-6′-yl]imidazo[1,5-a]pyrazin-1-yl}-3-ethoxy-N-[4-(trifluoromethyl)pyridin-2-yl]benzamide] here?
The IC50 was 3.81 nM.

What about the IC50 ([2]; Homo sapiens, HeLa) of the same molecule?
The IC50 was 613 nM.

Which IC50 [1] does the source give for `CCOc1cc(C(=O)Nc2cc(C(F)(F)F)ccn2)ccc1-c1nc([C@H]2CN3C(=O)C4(CC4)NC[C@@H]3CO2)n2ccnc(N)c12` [Compound 45, 4-{8-amino-3-[(3′R,9a′R)-6′-oxohexahydrospiro[cyclopropane-1,7′-pyrazino[2,1-c][1,4]oxazin]-3′-yl]imidazo[1,5-a]pyrazin-1-yl}-3-ethoxy-N-[4-(trifluoromethyl)pyridin-2-yl]benzamide] here?
The IC50 was 0.241 nM.

What about the IC50 ([2]; Homo sapiens, HeLa) of the same molecule?
The IC50 was 1580 nM.

How did the IC50 [1] turn out when `Nc1nccn2c([C@@H]3CC[C@H]4CNC5(CC5)C(=O)N4C3)nc(-c3ccc(C(=O)Nc4cc(C(F)(F)F)ccn4)cc3)c12` [Compound 40, 4-{8-amino-3-[(7′R,9a′S)-4′-oxohexahydro-2′H-spiro[cyclopropane-1,3′-pyrido[1,2-a]pyrazin]-7′-yl]imidazo[1,5-a]pyrazin-1-yl}-N-[4-(trifluoromethyl)pyridin-2-yl]benzamide] was run?
Its IC50 is 0.173 nM.

And the IC50 ([2]; Homo sapiens, HeLa)?
The IC50 was 168 nM.

Which results are given for `CCOc1cc(C(=O)Nc2cc(C(F)(F)F)ccn2)ccc1-c1nc([C@@H]2CC[C@H]3CN4CCC[C@@H]4C(=O)N3C2)n2ccnc(N)c12` [Compound 15, 4-{8-amino-3-[(5aS,8R,11aR)-11-oxodecahydro-1H-pyrido[1,2-a]pyrrolo[1,2-d]pyrazin-8-yl]imidazo[1,5-a]pyrazin-1-yl}-3-ethoxy-N-[4-(trifluoromethyl)pyridin-2-yl]benzamide]?
IC50 [1]: 0.462 nM; IC50 ([2]; Homo sapiens, HeLa): 1110 nM

Which IC50 [1] does the source give for `CCOc1cc(C(=O)Nc2cc(C(F)(F)F)ccn2)ccc1-c1nc([C@@H]2CC[C@H]3CNC4(CCC4)C(=O)N3C2)n2ccnc(N)c12` [Compound 17, 4-{8-amino-3-[(7′R,9a′S)-4′-oxohexahydro-2′H-spiro[cyclobutane-1,3′-pyrido[1,2-a]pyrazin]-7′-yl]imidazo[1,5-a]pyrazin-1-yl}-3-ethoxy-N-[4-(trifluoromethyl)pyridin-2-yl]benzamide] here?
The IC50 was 0.501 nM.

What about the IC50 ([2]; Homo sapiens, HeLa) of the same molecule?
Its IC50 is 1700 nM.
